Values quoted from earlier work in paper PMC9329312, “Decoding kinase-adverse event associations for small molecule kinase inhibitors” (Nature Communications, 2022).

Settings: ref FAERS

CCOc1cc2ncc(C#N)c(Nc3ccc(OCc4ccccn4)c(Cl)c3)c2cc1NC(=O)/C=C/CN(C)C [neratinib]
0.15%: Abdominal tenderness, % of Cases | Abnormal faeces, % of Cases | Abscess, % of Cases | Accidental overdose, % of Cases | Amnesia, % of Cases | Appendicitis, % of Cases | Appetite disorder, % of Cases | Asthma, % of Cases | Blister, % of Cases | Blood alkaline phosphatase increased, % of Cases | Blood bilirubin increased, % of Cases | Blood electrolytes decreased, % of Cases | Blood sodium decreased, % of Cases | Blood urine present, % of Cases | Brain cancer metastatic, % of Cases | Brain operation, % of Cases | Breast cancer, % of Cases | Breast cellulitis, % of Cases | Breast pain, % of Cases | COVID-19, % of Cases | Candida infection, % of Cases | Cellulitis, % of Cases | Chest discomfort, % of Cases | Cholelithiasis, % of Cases | Chromaturia, % of Cases | Cognitive disorder, % of Cases | Colon cancer, % of Cases
1.7%: Blood potassium decreased, % of Cases | Disease progression, % of Cases
15.5%: Constipation, % of Cases
0.225%: Ageusia, % of Cases | Aphonia, % of Cases | Ascites, % of Cases | Balance disorder, % of Cases | Bladder spasm, % of Cases | Blood glucose decreased, % of Cases | Blood iron decreased, % of Cases | Blood pressure decreased, % of Cases | Cardiac failure congestive, % of Cases | Clostridium difficile infection, % of Cases | Contusion, % of Cases | Device related infection, % of Cases | Diarrhoea haemorrhagic, % of Cases | Diverticulitis, % of Cases
3.4%: Abdominal distension, % of Cases
0.75%: Bone pain, % of Cases | Depression, % of Cases
6.6%: Dehydration, % of Cases
0.45%: Breast cancer stage IV, % of Cases | Drug ineffective, % of Cases
1.5%: Acne, % of Cases
4.8%: Abdominal discomfort, % of Cases
0.9%: Anxiety, % of Cases | Back pain, % of Cases
1.4%: Cough, % of Cases
4.6%: Dizziness, % of Cases
0.075%: Abdominal neoplasm, % of Cases | Abdominal pain lower, % of Cases | Acute respiratory failure, % of Cases | Adrenal mass, % of Cases | Adrenocortical insufficiency acute, % of Cases | Adverse event, % of Cases | Amenorrhoea, % of Cases | Anal cancer metastatic, % of Cases | Anal fissure, % of Cases | Anal incontinence, % of Cases | Anal inflammation, % of Cases | Anger, % of Cases | Animal bite, % of Cases | Animal scratch, % of Cases | Aphasia, % of Cases | Aphthous ulcer, % of Cases | Aplastic anaemia, % of Cases | Appendicitis perforated, % of Cases | Aspergillus infection, % of Cases | Asthenopia, % of Cases | Astigmatism, % of Cases | Atrial fibrillation, % of Cases | Bacterial infection, % of Cases | Biliary cirrhosis, % of Cases | Bladder dilatation, % of Cases | Blood calcium decreased, % of Cases | Blood creatinine abnormal, % of Cases | Blood glucose fluctuation, % of Cases | Blood glucose increased, % of Cases | Blood pressure abnormal, % of Cases | Blood urea nitrogen/creatinine ratio increased, % of Cases | Bone cancer, % of Cases | Bowel movement irregularity, % of Cases | Brain natriuretic peptide increased, % of Cases | Brain neoplasm malignant, % of Cases | Brain oedema, % of Cases | Breast calcifications, % of Cases | Breast disorder, % of Cases | Breast haemorrhage, % of Cases | Breast swelling, % of Cases | Brief resolved unexplained event, % of Cases | Bronchitis, % of Cases | Bundle branch block left, % of Cases | Cachexia, % of Cases | Cancer pain, % of Cases | Carbohydrate antigen 15-3 increased, % of Cases | Cardiac disorder, % of Cases | Cardiac operation, % of Cases | Cardio-respiratory arrest, % of Cases | Catatonia, % of Cases | Cellulitis staphylococcal, % of Cases | Central nervous system haemorrhage, % of Cases | Central venous catheter removal, % of Cases | Central venous catheterisation, % of Cases | Cerebral cyst, % of Cases | Chapped lips, % of Cases | Chest wall tumour, % of Cases | Cholangiocarcinoma, % of Cases | Cholecystectomy, % of Cases | Cholecystitis, % of Cases | Chronic fatigue syndrome, % of Cases | Chronic hepatic failure, % of Cases | Clostridium difficile colitis, % of Cases | Coagulopathy, % of Cases | Colectomy, % of Cases | Colitis ulcerative, % of Cases | Coma, % of Cases | Completed suicide, % of Cases | Condition aggravated, % of Cases | Conjunctivitis, % of Cases | Critical illness, % of Cases | Cyst, % of Cases | Deafness bilateral, % of Cases | Deep vein thrombosis, % of Cases | Dementia, % of Cases | Dental operation, % of Cases | Dermatitis contact, % of Cases | Diabetic ketoacidosis, % of Cases | Diplegia, % of Cases | Diplopia, % of Cases | Discomfort, % of Cases | Disorientation, % of Cases | Disturbance in attention, % of Cases | Drug eruption, % of Cases | Drug hypersensitivity, % of Cases | Drug interaction, % of Cases
11.9%: Decreased appetite, % of Cases
6.2%: Abdominal pain, % of Cases
0.8%: Blood creatinine increased, % of Cases | Confusional state, % of Cases
2.6%: Adverse drug reaction, % of Cases
1.0%: Drug intolerance, % of Cases
0.6%: Acute kidney injury, % of Cases | Alanine aminotransferase increased, % of Cases | Anaemia, % of Cases | Blood pressure increased, % of Cases | Chest pain, % of Cases | Dermatitis acneiform, % of Cases
2.4%: Arthralgia, % of Cases
0.375%: Arthritis, % of Cases | Breast reconstruction, % of Cases | Cystitis, % of Cases
2.3%: Breast cancer metastatic, % of Cases
6.0%: Abdominal pain upper, % of Cases
61.8%: Diarrhoea, % of Cases
0.3%: Aspartate aminotransferase increased, % of Cases | Blood magnesium decreased, % of Cases | Blood urea increased, % of Cases | Brain neoplasm, % of Cases | Burning sensation, % of Cases | Cerebrovascular accident, % of Cases | Colitis, % of Cases | Depressed mood, % of Cases
0.5%: Alopecia, % of Cases | Chills, % of Cases
4.1%: Asthenia, % of Cases
9.6%: Death, % of Cases
